In ChEMBL document CHEMBL4152218, “Novel hydrazide-hydrazone and amide substituted coumarin derivatives: Synthesis, cytotoxicity screening, microarray, radiolabeling and in vivo pharmacokinetic studies” (Eur J Med Chem, 2018) one finds Activity, selectivity ratio and IC50 data, which are given here for two compounds.

Data set [1] relates to HepG2. The data set can be described thus: Induction of apoptosis in human HepG2 cells assessed as increase in caspase-3/7 activity after 24 hrs by Caspase-Glo 3/7 luminescence assay. The data set is classed as functional, cell-based.
Data set [2] is described as follows: Selectivity index, ratio of IC50 for hTERT-RPE1 cells to IC50 for human PANC1 cells. The data set is classed as toxicity. Conditions: hTERT-RPE1 cells versus PANC1 cells, read-out: Ratio IC50.
For data set [3], the system named is HepG2. The data set can be described thus: Antiproliferative activity against human HepG2 cells after 48 hrs by resazurin dye-based fluorescence assay. It is filed as functional, cell-based. Conditions: HepG2, 48 h. For orientation: Resazurin is reduced to fluorescent resorufin, in cell work by metabolically active cells.
For data set [4], the system named is hTERT-BJ. The data set can be described thus: Cytotoxicity against hTERT-BJ cells at 12.50 uM after 48 hrs by resazurin dye-based fluorescence assay relative to control. The data set is classed as cell-based. The following applies: human, 12.5 µM.
Data set [5] deals with TERT-RPE1. The data set can be described thus: Cytotoxicity against hTERT-RPE1 cells at 12.50 uM after 48 hrs by resazurin dye-based fluorescence assay relative to control. The data set is classed as cell-based. Conditions: human, tert-rpe1, 48 h, 12.5 µM.
The test system of data set [6] is TERT-RPE1. Kind of data set: Cytotoxicity against hTERT-RPE1 cells at 50 uM after 48 hrs by resazurin dye-based fluorescence assay relative to control. It is filed as cell-based. Conditions: human, tert-rpe1, 48 h.
The subject of data set [7] is TERT-RPE1. The data set can be described thus: Cytotoxicity against hTERT-RPE1 cells at 6.25 uM after 48 hrs by resazurin dye-based fluorescence assay relative to control. The data set is classed as cell-based. Conditions: human, tert-rpe1, 48 h.
Data set [8] relates to PANC-1. Kind of data set: Antiproliferative activity against human PANC1 cells after 48 hrs by resazurin dye-based fluorescence assay. The following applies: PANC-1, 48 h. The data set is classed as functional, cell-based.
A short description of data set [9]: Selectivity index, ratio of IC50 for hTERT-RPE1 cells to IC50 for human CCRF-CEM cells. The following applies: hTERT-RPE1 cells versus CCRF-CEM cells, read-out: Ratio IC50. It is filed as toxicity.
Data set [10] concerns hTERT-BJ. Kind of data set: Cytotoxicity against hTERT-BJ cells at 6.25 uM after 48 hrs by resazurin dye-based fluorescence assay relative to control. The following applies: human. The data set is classed as cell-based.
A short description of data set [11]: Selectivity index, ratio of IC50 for hTERT-BJ cells to IC50 for human CCRF-CEM cells. The data set is classed as toxicity. Conditions: hTERT-BJ cells versus CCRF-CEM cells, read-out: Ratio IC50.
The subject of data set [12] is TERT-RPE1. Kind of data set: Cytotoxicity against hTERT-RPE1 cells at 25 uM after 48 hrs by resazurin dye-based fluorescence assay relative to control. The data set is classed as cell-based. Conditions: human, tert-rpe1, 48 h.
Data set [13] concerns hTERT-BJ. The data set can be described thus: Cytotoxicity against hTERT-BJ cells at 25 uM after 48 hrs by resazurin dye-based fluorescence assay relative to control. The data set is classed as cell-based. The following applies: human.
Data set [14] deals with hTERT-BJ. Kind of data set: Cytotoxicity against hTERT-BJ cells after 48 hrs by resazurin dye-based fluorescence assay. The data set is classed as cell-based. The following applies: Homo sapiens.
For data set [15], the system named is hTERT-BJ. Kind of data set: Cytotoxicity against hTERT-BJ cells at 50 uM after 48 hrs by resazurin dye-based fluorescence assay relative to control. The data set is classed as cell-based. Conditions: human.
Data set [16] has as its system TERT-RPE1. The data set can be described thus: Cytotoxicity against hTERT-RPE1 cells after 48 hrs by resazurin dye-based fluorescence assay. Conditions: Homo sapiens, RPE-1, 48 h. It is filed as cell-based.
Data set [17] has as its system PANC-1. The data set can be described thus: Induction of apoptosis in human PANC1 cells assessed as increase in caspase-3/7 activity after 24 hrs by Caspase-Glo 3/7 luminescence assay. The data set is classed as functional, cell-based.
The nature of data set [18]: Selectivity index, ratio of IC50 for hTERT-BJ cells to IC50 for human PANC1 cells. It is filed as toxicity. Conditions: hTERT-BJ cells versus PANC1 cells, read-out: Ratio IC50.
Data set [19] can be described thus: Selectivity index, ratio of IC50 for hTERT-RPE1 cells to IC50 for human HepG2 cells. It is filed as toxicity. The following applies: hTERT-RPE1 cells versus HepG2 cells, read-out: Ratio IC50.
The subject of a further data set is CCRF-CEM. Kind of data set: Antiproliferative activity against human CCRF-CEM cells after 48 hrs by resazurin dye-based fluorescence assay. The data set is classed as functional, cell-based.
Data set [20] can be described thus: Selectivity index, ratio of IC50 for hTERT-BJ cells to IC50 for human HepG2 cells. The data set is classed as toxicity. The following applies: hTERT-BJ cells versus HepG2 cells, read-out: Ratio IC50.

Each structure is given as a SMILES string. Some results are limits rather than exact numbers.

By IC50 is commonly meant the concentration that inhibits the measured activity by half. As for `O=C(N/N=C/c1cccnc1)c1cc2ccccc2oc1=O`, the Activity entry with HepG2 [1] is “Dose-dependent effect”; with hTERT-BJ [4], 0.97%; with TERT-RPE1 [5] it was 8.28%; in the data set on TERT-RPE1 [6], 14.75%; with TERT-RPE1 [7], 7.46%; with hTERT-BJ [10] it was 0.21%. For the same compound, the Activity is 9.89% in the data set with TERT-RPE1 [12], 5.22% with hTERT-BJ [13], 2.6% with hTERT-BJ [15] and “Dose-dependent effect” in the data set on PANC-1 [17]. The selectivity ratio in [2] was greater than 3.27; in data set [9] it was greater than 5.05; in data set [11], greater than 5.05; in data set [18], greater than 3.27; in data set [19], greater than 3.14; in data set [20], greater than 3.14. The IC50 in the data set on HepG2 [3] is 15.9 µM; with PANC-1 [8], 15.3 µM; with hTERT-BJ [14], greater than 50 µM; with TERT-RPE1 [16], greater than 50 µM; in the data set with CCRF-CEM it was 9.9 µM.
Turning to `CCOc1ccc2nc(Cl)c(/C=N/NC(=O)c3cc4cc([N+](=O)[O-])ccc4oc3=O)cc2c1`, the Activity entry was “Dose-dependent effect” in the data set on HepG2 [1]; 1.38% in the data set on hTERT-BJ [4]; 3.92% in the data set with TERT-RPE1 [5]; 10.48% with TERT-RPE1 [6]; 1.74% with TERT-RPE1 [7]; 1.58% with hTERT-BJ [10]. In addition, the Activity is 5.6% in the data set with TERT-RPE1 [12], 2.13% in the data set on hTERT-BJ [13], 3.33% in the data set on hTERT-BJ [15] and “Dose-dependent effect” in the data set with PANC-1 [17]. The selectivity ratio was greater than 4.75 in data set [2]; greater than 3.19 in data set [9]; greater than 3.19 in [11]; greater than 4.75 in data set [18]; greater than 2.77 in [19]; greater than 2.77 in [20]. For the same compound, the IC50 with HepG2 [3] was 18.1 µM; with PANC-1 [8] it was 10.5 µM; in the data set with hTERT-BJ [14], greater than 50 µM; in the data set on TERT-RPE1 [16], greater than 50 µM; with CCRF-CEM, 15.7 µM.
